Test results reported in ChEMBL document CHEMBL5465560, “Selectivity Literature for EUbOPEN Chemogenomic Library” (2024).
Values belong to the molecule of their own block, whether it stands above or below them.

Columns and labels:
[1] = target: Serine/threonine-protein kinase SIK2 (Homo sapiens) (UniProt Q9H0K1); test: Selectivity interaction (KinomeScan (DiscoverX)) EUB0000666a SIK2; settings: at 10 µM
[2] = target: T1, Phosphorylase b kinase gamma catalytic chain, liver/testis isoform (Homo sapiens) (UniProt P15735); test: Selectivity interaction (KinomeScan (DiscoverX)) EUB0000666a PHKG2; settings: at 10 µM
T1 sequence (whole entry): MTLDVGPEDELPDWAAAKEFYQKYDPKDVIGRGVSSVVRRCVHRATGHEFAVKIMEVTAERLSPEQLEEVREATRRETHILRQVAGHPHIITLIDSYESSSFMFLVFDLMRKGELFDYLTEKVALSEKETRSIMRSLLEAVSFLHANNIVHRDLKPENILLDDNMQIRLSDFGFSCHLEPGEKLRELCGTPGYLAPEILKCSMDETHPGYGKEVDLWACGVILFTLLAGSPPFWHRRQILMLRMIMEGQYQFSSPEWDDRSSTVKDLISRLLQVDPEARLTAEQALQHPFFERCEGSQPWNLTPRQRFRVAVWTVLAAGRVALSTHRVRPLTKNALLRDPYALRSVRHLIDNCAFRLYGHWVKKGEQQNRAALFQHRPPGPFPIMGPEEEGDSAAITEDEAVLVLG

[3] = target: T2, Dual specificity mitogen-activated protein kinase kinase 3 (Homo sapiens) (UniProt P46734); test: Selectivity interaction (ActivX KiNativ screen (kinase selectivity in THP-1 cell lysates)) EUB0000639a MAP2K3; format: subcellular; settings: lysate, at 5 µM
T2 sequence (whole entry): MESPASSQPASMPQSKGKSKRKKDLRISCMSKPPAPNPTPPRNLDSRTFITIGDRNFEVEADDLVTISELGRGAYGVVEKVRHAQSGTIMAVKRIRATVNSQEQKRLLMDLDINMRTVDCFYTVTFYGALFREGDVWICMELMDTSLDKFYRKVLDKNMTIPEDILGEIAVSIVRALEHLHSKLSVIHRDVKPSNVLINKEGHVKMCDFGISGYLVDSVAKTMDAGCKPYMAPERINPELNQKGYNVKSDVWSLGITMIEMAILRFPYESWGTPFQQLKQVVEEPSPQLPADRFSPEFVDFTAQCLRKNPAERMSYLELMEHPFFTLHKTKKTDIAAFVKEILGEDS

[4] = target: T3, Diacylglycerol kinase eta (Homo sapiens) (UniProt Q86XP1); test: Selectivity interaction (ActivX KiNativ screen (kinase selectivity in THP-1 cell lysates)) EUB0000639a DGKH; format: subcellular; settings: lysate
T3 sequence (whole entry): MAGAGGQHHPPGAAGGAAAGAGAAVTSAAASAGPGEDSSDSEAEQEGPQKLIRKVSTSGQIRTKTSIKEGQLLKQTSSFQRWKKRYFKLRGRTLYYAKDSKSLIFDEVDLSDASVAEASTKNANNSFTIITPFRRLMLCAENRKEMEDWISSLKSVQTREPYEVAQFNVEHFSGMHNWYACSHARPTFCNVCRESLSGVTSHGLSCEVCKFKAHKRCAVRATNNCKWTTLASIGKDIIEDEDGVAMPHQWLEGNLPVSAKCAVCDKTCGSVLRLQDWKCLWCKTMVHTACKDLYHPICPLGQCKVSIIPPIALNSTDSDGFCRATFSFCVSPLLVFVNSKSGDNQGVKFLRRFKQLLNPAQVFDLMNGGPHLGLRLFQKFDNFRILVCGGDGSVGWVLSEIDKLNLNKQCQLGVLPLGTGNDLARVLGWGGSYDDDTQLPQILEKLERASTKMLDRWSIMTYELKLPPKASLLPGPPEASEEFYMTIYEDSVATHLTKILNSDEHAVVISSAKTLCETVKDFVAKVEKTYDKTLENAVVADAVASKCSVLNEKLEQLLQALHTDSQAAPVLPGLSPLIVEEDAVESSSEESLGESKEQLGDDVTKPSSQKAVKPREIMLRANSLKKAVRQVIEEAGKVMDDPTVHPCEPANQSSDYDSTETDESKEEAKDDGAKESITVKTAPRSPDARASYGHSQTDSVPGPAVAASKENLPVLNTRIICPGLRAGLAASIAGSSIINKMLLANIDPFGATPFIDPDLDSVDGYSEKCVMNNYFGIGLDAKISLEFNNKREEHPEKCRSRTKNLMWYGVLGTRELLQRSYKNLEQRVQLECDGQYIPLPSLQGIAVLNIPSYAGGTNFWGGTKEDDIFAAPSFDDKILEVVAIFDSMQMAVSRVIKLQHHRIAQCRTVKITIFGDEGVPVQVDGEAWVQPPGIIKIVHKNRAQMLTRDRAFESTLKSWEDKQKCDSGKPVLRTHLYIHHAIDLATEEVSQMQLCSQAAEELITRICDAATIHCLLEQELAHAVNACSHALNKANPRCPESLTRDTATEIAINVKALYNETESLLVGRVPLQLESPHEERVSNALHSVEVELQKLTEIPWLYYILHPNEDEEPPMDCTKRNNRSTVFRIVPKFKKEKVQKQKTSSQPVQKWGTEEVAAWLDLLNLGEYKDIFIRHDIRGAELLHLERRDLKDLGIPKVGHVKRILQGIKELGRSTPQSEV

[5] = target: Ephrin type-A receptor 5 (Homo sapiens) (UniProt P54756); test: Selectivity interaction (Kinase panel (DSF assay)) EUB0001559a EPHA5
[6] = target: Mitogen-activated protein kinase 9 (Homo sapiens, UniProt P45984); test: Selectivity interaction (Kinase panel (DSF assay)) EUB0001558a MAPK9
Mitogen-activated protein kinase 9, sequence (P45984 whole entry, looked up): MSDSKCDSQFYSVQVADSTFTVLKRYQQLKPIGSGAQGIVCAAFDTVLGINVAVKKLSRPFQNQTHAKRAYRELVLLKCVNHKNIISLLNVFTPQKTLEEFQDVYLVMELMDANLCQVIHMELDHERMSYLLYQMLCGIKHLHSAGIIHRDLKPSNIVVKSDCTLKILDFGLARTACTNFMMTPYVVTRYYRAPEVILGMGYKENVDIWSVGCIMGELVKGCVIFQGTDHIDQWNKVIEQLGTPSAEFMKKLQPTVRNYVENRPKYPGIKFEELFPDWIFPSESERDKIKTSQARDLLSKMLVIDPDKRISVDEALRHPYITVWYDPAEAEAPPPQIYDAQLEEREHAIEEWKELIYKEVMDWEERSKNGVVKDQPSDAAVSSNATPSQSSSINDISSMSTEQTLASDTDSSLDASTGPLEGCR

Serine/threonine-protein kinase SIK2 (Homo sapiens), sequence (Q9H0K1 whole entry, looked up, canonical isoform): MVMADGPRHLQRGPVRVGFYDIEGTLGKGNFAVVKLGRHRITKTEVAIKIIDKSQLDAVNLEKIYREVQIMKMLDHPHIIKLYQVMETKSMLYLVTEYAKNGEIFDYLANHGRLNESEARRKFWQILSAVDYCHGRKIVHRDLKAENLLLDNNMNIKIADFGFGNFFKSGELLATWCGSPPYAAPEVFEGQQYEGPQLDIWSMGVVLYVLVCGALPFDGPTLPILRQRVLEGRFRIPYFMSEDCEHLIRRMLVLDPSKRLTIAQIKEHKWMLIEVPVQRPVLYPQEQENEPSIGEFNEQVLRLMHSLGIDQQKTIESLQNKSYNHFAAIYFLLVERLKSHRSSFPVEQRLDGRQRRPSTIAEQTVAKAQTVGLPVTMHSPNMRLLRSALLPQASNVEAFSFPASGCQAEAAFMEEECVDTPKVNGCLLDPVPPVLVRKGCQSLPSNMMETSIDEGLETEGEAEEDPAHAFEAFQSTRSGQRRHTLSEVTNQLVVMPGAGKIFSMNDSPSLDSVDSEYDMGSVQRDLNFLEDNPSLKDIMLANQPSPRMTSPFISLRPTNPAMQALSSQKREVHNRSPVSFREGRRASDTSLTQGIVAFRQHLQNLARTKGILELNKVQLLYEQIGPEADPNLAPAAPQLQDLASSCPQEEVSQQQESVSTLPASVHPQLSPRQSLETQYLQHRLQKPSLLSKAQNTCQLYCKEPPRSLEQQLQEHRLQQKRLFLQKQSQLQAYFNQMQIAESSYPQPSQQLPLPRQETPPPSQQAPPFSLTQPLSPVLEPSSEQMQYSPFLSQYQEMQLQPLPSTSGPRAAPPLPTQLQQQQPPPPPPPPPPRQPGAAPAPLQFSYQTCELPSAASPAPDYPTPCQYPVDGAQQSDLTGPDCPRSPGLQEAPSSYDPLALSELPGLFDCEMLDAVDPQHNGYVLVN
Ephrin type-A receptor 5 (Homo sapiens), sequence (P54756 whole entry): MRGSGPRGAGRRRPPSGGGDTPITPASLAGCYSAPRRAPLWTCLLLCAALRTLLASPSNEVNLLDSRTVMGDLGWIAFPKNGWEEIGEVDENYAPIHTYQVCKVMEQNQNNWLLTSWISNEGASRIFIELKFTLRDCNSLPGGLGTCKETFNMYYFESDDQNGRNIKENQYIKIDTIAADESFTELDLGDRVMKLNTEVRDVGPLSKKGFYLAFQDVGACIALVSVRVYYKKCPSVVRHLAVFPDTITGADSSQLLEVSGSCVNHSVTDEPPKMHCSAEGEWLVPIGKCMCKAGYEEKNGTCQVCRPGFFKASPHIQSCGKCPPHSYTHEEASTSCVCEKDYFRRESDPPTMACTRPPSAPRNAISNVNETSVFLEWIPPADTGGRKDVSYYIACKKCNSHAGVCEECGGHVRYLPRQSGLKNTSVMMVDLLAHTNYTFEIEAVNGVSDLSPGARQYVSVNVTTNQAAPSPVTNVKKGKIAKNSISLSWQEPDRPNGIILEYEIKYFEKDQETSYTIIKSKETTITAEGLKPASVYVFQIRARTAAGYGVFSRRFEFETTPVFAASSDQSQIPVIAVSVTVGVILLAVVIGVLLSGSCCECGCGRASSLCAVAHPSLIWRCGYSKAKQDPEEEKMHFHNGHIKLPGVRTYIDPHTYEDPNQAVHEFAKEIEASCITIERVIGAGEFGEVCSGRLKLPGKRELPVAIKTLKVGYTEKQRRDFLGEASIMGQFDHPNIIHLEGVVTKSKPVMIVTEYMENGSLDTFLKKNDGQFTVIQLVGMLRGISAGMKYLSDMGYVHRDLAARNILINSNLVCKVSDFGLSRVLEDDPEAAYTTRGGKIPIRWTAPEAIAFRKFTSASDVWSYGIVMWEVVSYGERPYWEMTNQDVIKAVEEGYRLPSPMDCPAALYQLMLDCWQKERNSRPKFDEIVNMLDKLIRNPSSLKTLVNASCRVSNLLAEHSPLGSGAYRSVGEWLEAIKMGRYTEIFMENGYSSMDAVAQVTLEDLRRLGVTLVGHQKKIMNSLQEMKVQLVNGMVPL

Compound: O=C(NOC[C@H](O)CO)c1ccc(F)c(F)c1Nc1ccc(I)cc1F
% of control [1]: 92% | % of control [2]: 93%

% of inhibition [3]: -185% | % of inhibition ([4]; at 0.01 µM): 12.2% | % of inhibition ([4]; at 0.04 µM): 0% | % of inhibition ([4]; at 0.2 µM): 20% | % of inhibition ([4]; at 1 µM): 0.8% | % of inhibition ([4]; at 5 µM): -3.6%
Compound: CC[C@@H]1[C@H](F)C(=O)N[C@@H]1COc1nccc2cc(C(N)=O)c(OC)cc12 [ZIMLOVISERTIB]

dTM [5]: -0.3 K
Compound: CN(C(=O)c1cnn2cccnc12)c1cc2c(cc1N1CCOCC1)C(=O)N(C[C@@H](F)C(C)(C)O)C2

Compound: CC(C)(O)[C@H](F)CN1Cc2cc(NC(=O)c3cnn4cccnc34)c(N3CCOCC3)cc2C1=O
dTM [6]: 1.6 K
